Tested on: in vitro skin samples (EPISKIN)
Assay: In vitro skin samples after fractional laser procedure, wound healing by OCT imaging
Format: cell-based
Details: application after the fractional laser procedure
Experimental: The benefits of applying the Composition 4 to skin after a procedure that reduces the barrier function of skin was evaluated in vitro using samples generated by the EPISKIN™ group. Composition 4 comprised 0.5 wt. % of acetyl trifluoromethylphenyl valylglycine and 2 wt. % ethanol with the remainder being water, with all weight percentages based on the total weight of the formulation. A comparative composition (Comparative Composition A) containing transforming growth factor alpha (“TGF-α”) was also evaluated as a comparison to the Composition 4.
Specifically, a fractional laser procedure that is typical of laser resurfacing procedures was applied to the in vitro skin samples. The in vitro skin samples were characterized using non-invasive imaging analysis to determine the wound morphology of the in vitro skin samples. The kinetics and quantification of wound healing after the laser treatment was evaluated using optical coherence tomography (OCT). The optical measurements were performed at seven time points over the culture period. This was achieved using an OCT system produced by Thorlabs (Newton, N.J., USA) with an axial resolution of 8 μm.
Composition 4 and Comparative Composition A were applied by adding 10 uL onto in vitro skin samples after the fractional laser procedure. […]

## CC(=O)N(c1cccc(C(F)(F)F)c1)C(C(=O)NCC(=O)O)C(C)C (stereo not shown) [acetyl trifluoromethylphenyl valylglycine]
  regeneration of the epidermis: enhanced regeneration of the epidermis
